Calls of active or inactive are those of the source. No cut-off for these calls is given here.
Tests used:
HEK293 = assay: Cytotoxicity against HEK293 cells assessed as cell viability by CellTiter-Glo based assay; type: toxicity; conditions: human
[1] = target: T1, von Hippel-Lindau disease tumor suppressor/Bromodomain-containing protein 4 (Homo sapiens, UniProt O60885+P40337); assay: Protac activity at VHL E3 ligase/BRD4 in HEK293 cells assessed as BRD4 degradation by HiBiT assay relative to control; type: cell-based
T1 sequence (P40337 whole entry, looked up, other chains not shown): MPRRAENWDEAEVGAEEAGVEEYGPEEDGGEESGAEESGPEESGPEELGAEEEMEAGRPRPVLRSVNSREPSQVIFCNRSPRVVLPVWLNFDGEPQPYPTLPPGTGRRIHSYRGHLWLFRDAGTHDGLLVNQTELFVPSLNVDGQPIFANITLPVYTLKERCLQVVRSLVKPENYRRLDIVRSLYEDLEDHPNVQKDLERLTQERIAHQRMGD

[2] = target: T1, von Hippel-Lindau disease tumor suppressor/Bromodomain-containing protein 4; assay: Protac activity at VHL E3 ligase/BRD4 in HEK293 cells assessed as BRD4 degradation by HiBiT assay; type: cell-based

Cc1sc2c(c1C)C(c1ccc(Cl)cc1)=N[C@@H](CC(=O)NCCCCCC(=O)O)c1nnc(C)n1-2
Activity (HEK293): Non-Toxic

Cc1ncsc1-c1ccc(CNC(=O)[C@@H]2C[C@@H](O)CN2C(=O)[C@@H](NC(=O)COCCOCCOCCNC(=O)C[C@@H]2N=C(c3ccc(Cl)cc3)c3c(sc(C)c3C)-n3c(C)nnc32)C(C)(C)C)cc1
Activity (HEK293): Non-Toxic
Activity [1]: 25%
Activity [2]: Active

Cc1sc2c(c1C)C(c1ccc(Cl)cc1)=N[C@@H](CC(=O)O)c1nnc(C)n1-2
Activity (HEK293): Non-Toxic
